The source of these data is patent US20030144352A1, “Antimuscarinic aerosol” (priority 2001, published 2003).

The nature of data set [1]: Plasma concentration of tolterodine after aerosol administration (inhalation) in mice. In kind it is in vivo. The method, then:
Female BALB/C mice, weight range 19-22 g, were obtained from Charles River Laboratories (Kingston, N.C.). They received food and water ad libitum. All procedures in these studies were in compliance with the Animal Welfare Act Regulation, 9CFR Parts 1 and 2, Publication (NIH) 85-23, 1985.
This nebulizer generates a mean aerosol particle size of 1.3 microns at a rate of approximately 0.25 ml/minute.
Blood samples were taken via cardiac puncture under isoflurane anesthesia at 5, 15, 30, 60, 120, and 240 minutes after in treatment and at 2.5, 5, 15, 30, 60, and 120 minutes after aerosol drug treatment.
The samples were collected in tubes containing EDTA and centrifuged at 12000×g for four minutes. Plasma was removed and stored at −70° C. until assay.
Plasma samples were extracted via a liquid/liquid extraction technique. […] Chromatographically, the analyte and internal standard were resolved on a Zorbax ACE Phenyl column (2.1×50mm) using a gradient elution. The total analysis time was 4 minutes with a limit of quantization of 100 pg/mL.
Female BALB/c mice, weight range 19-22 g, were obtained from Charles River Laboratories (Kingston, N.C.). They received food and water ad libitum. All procedures in these studies were in compliance with the Animal Welfare Act Regulation, 9CFR Parts 1 and 2, Publication (NIH) 85-23, 1985.
The duration of aerosol treatment was five minutes. Blood samples were collected via cardiac puncture at 2.5, 5, 15, 30, 60, and 120 minutes following the end of the drug nebulization period.
The samples from were collected in tubes containing EDTA and centrifuged at 12000×g for four minutes. Plasma was removed and stored at −70° C. until assay.

For data set [2] the following is noted: human serum; Nilvebrant et al., Life Sciences 60 (1997); cited from earlier work.

Take `Cc1ccc(O)c([C@H](CCN(C(C)C)C(C)C)c2ccccc2)c1` [tolterodine, 2-[(1R)-3-(diisopropylamino)-1-phenylpropyl]-4-methylphenol]: the “Rise in tolterodine plasma concentration” value in data set [1] (mice, aerosol administration (FIGS. 1 and 2)) was “within a few minutes a distinct and instant rise”. Further, the “Absorption into the circulation” value in data set [1] (mice, inhalation of nebulized solutions at 0.1, 0.5 or 1.0 mg/mL) is “rapidly absorbed into the circulation”. Besides, the Fraction unbound in data set [2] is 3.7%.

Take `CC(C)N(CC[C@H](c1ccccc1)c1cc(CO)ccc1O)C(C)C` [5-HM, 2-[(1R)-3-(diisopropylamino)-1-phenylpropyl]-4-(hydroxymethyl)phenol]: the Fraction unbound in data set [2] is recorded as 36%.

Turning to `Cc1ccc(O)c([C@H](CCN(C(C)C)C(C)C)c2ccccc2)c1.O=C(O)C(O)C(O)C(=O)O` [tolterodine L-tartrate, (R)-N,N-diisopropyl-3-(2-hydroxy-5-methylphenyl)-3-phenylpropanamine L-tartrate], the Plasma levels entry in data set [1] (female BALB/c mice, inhalation of nebulized 0.1 mg/mL solution for five minutes, 2.5-120 minutes after nebulization) is listed as “at or below-detection limits”.
